Experimental data reported in US6653478B2, “Substituted benzimidazol-2-ones as vasopressin receptor antagonists and neuropeptide Y modulators” (Ortho-McNeil Pharmaceutical, Inc., priority 2000, dated 2003).
Counter-ions that a name gives are not always drawn.

How the values were obtained:
human V1a receptor = human V1a receptor (Homo sapiens, UniProt P37288); test: V1a functional assay, intracellular calcium mobilization in transfected HEK-293 cells (FLIPR); parameters: expressed in transfected cells; host or cells: HEK-293; conditions: challenge 1 nM AVP; read-out: Cell-Based Functional activity V1a IC50
Experimental: (§1) V1a, V1b or V2 Functional Assay
(§2) HEK-293 cells were grown in DMEM media supplemented with 10% FBS and glutamine (Gibco BRL, Grand Island, N.Y.). Once transfected the cells were passed biweekly by trypsinization and seeded into 96 well plates at 33,000 cells per well. HEK-293 were transfected with human V1a, V1b or V2 DNA using DMRIE-C reagent from Life Technologies, Inc., Grand Island, N.Y. Cells were tested for their responsiveness to vasopressin 48 hours after transfection. Stable lines were generated by selecting cells grown in culture media containing geneticin (500 μg/ml, Life Technologies).
(§3) Intracellular calcium mobilization was measured in HEK-293 cells transfected to express either human V1a, oxytocin or V1b receptors. Cells were plated into black 96-well Packard Clear-View plates 4 to 7 days prior to use. The cells were loaded with fluo-3 AM (Molecular Probes, Inc., Eugene, Oreg.) in buffer (25 mM Hepes, 125 mM NaCl, 1 gm/l glucose, 0.1% BSA, 5 mM KCl, 0.5 mM CaCl2, 0.5 mM MgCl2, pH 7.45) containing Pluronic (Molecular Probes) Cells were incubated with 5 μM fluo-3 AM for 1 hour shielded from light at room temperature. Intracellular fluorescence was measured using FLIPR (fluorometric imaging plate reader; Molecular Devices, Inc., Sunnyvale, Calif.). The FLIPR protocol called for images to be collected at one second intervals with 50 μl of the test compound added after the initial 10 images. An additional 70 images were then taken to detect any compound agonistic activity. FLIPR then added 50 μl of agonist peptide and collected a final 40 images for quantitating compound antagonistic activity. V1a- and V1b-expressing HEK cells were challenged with 1 nM and 0.5 nM AVP, respectively. Oxytocin-expressing HEK cells were challenged with 0.5 nM oxytocin (Peninsula Labs).
(§4) The data from the cAMP accumulation and the calcium mobilization assays are expressed as IC50 values as determined from dose response curves.

human V2 receptor [1] = target: T1, human V2 receptor (Homo sapiens, UniProt P30518); test: V2 functional assay, cAMP accumulation in transfected HEK-293 cells; format: cell-based; parameters: expressed in transfected cells; host or cells: HEK-293; conditions: for IC50: AVP 1 nM, read-out: Cell-Based Functional activity V2 IC50
Experimental: as §1, §2
The accumulation of cAMP was measured in transfected HEK-293 expressing the human V2 receptor. The cells were cultured 4-7 days in 96-well plates. On the day of assay, cells were washed twice in assay media (DMEM/F12 containing 0.1% BSA). The cells were treated with the test compound for 5 minutes and then given AVP (1 nM) in assay media containing 1 mM isobutylmethylxanthine. After 5 minutes, 0.5 N HCl was added to disrupt the cells and solubilize cAMP. The cAMP content of 20 μl of the cell lysate in each well was measured using cAMP Flashplates (NEN Life Sciences). Data are expressed as pmol cAMP/well. While the assay is optimized to detect and quantitate antagonistic activity, agonistic activity would also be apparent at the higher concentrations of test compounds.
as §4

human V1b receptor [2] = target: T2, human V1b receptor (Homo sapiens, UniProt P47901); test: V1b functional assay, intracellular calcium mobilization in transfected HEK-293 cells (FLIPR); format: cell-based; parameters: expressed in transfected cells; host or cells: HEK-293; conditions: for IC50: challenge 0.5 nM AVP, read-out: Cell-Based Functional activity V1b IC50
T2 sequence (P47901 1-424): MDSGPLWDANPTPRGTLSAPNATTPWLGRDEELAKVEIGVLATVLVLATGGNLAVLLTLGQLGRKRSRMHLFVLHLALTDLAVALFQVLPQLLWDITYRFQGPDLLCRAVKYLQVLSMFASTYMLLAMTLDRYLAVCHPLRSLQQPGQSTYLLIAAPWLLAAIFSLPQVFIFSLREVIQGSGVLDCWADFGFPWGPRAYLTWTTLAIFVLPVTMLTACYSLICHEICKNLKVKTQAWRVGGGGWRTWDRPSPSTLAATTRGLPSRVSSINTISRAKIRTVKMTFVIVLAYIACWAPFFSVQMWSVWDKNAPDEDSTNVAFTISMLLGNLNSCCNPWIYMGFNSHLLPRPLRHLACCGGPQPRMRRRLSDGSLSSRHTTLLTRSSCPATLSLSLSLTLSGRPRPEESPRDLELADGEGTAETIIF
Experimental: as §1, §2, §3, §4

human V1b receptor [3] = target: T2, human V1b receptor; test: V1b binding assay (3H-AVP displacement, HEK-293 membranes); parameters: expressed in transfected cells; host or cells: HEK-293 (membranes); conditions: for inhibition at 10 µM: read-out: V1b % Inh @10
In short: (§5)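 Each well: membranes, test compound (from 10% DMSO working stock), 3H-AVP. Buffer pH 7.5 with 0.1% BSA and protease inhibitors; 1 h, room temperature. Non-specific binding: 1.25 μM AVP. Filter, wash, count.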

human V2 receptor [4] = target: T1, human V2 receptor; test: V2 binding assay (3H-AVP displacement, HEK-293 membranes); parameters: expressed in transfected cells; host or cells: HEK-293 (membranes); conditions: for inhibition at 1 µM: read-out: V2@1.0, % Inh
In short: as §5

human V1a receptor, sequence (P37288 whole entry): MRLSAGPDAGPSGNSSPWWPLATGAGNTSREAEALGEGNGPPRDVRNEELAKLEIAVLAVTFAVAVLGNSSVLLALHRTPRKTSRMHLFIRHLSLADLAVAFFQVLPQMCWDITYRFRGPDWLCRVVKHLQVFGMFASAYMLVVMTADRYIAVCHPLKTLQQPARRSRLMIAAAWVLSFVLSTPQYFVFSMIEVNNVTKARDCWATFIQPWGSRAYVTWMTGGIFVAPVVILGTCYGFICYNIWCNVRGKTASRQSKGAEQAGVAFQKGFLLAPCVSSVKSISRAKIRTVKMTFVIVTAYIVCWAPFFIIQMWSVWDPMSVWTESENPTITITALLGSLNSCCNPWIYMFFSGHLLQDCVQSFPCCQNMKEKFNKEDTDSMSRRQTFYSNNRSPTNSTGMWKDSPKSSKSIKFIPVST

Compound | IC50 (human V1a receptor) [nM] | IC50 (human V2 receptor [1]) [nM] | IC50 (human V1b receptor [2]) [nM] | inhibition at 1 µM (human V1b receptor [3]; 1.0 μM compound, read-out: V1b@1.0, % Inh) [%] | inhibition at 1 µM (human V2 receptor [4]; 1.0 μM compound) [%] | IC50 (human V1b receptor [3]) [nM] | IC50 (human V2 receptor [4]) [nM] | Cell-Based Functional activity V2 % Inh. @ 30 (human V2 receptor [1]; 30 μM compound) [% @ 30] | V1b % Inh @10 (human V1b receptor [3]; 10 μM compound) [%@10] | V2@1.0, % Inh (human V2 receptor [4]; 1.0 μM compound) [%] | inhibition at 30 µM (human V2 receptor [1]; HEK293, 30 μM compound, read-out: Cell-Based Functional activity V2 % Inh. @ 30) [%] | inhibition at 10 µM (human V1b receptor [3]; 10 μM compound) [%] | inhibition at 10 µM (human V2 receptor [1]; HEK293, 10 μM compound, read-out: Cell-Based Functional activity V2 % Inh. @ 10) [%] | inhibition at 30 µM (human V1b receptor [2]; HEK293, 30 μM compound, read-out: Cell-Based Functional activity V1b % Inh. @ 30) [%]
CCN(CC)CCn1c(=O)n(C2CCN(C(=S)NC(c3ccccc3)c3ccccc3)CC2)c2ccccc21 [Compound 35, 1-(N1-Piperidinocarbothioyldiphenylmethylamino-4-yl)-3-(2-diethyaminoethyl)-1,3-dihydrobenzimidazol-2-one] | 458 | 623 | 9990 | 47 | 44 | – | – | – | – | – | – | – | – | –
1-[(N1-Piperidinocarbothioyl-(1-L-carboxymethyl-2-phenylamino)-4-yl]-3-(3-aminopropyl)-1,3-dihydrobenzimidazol-2-one Hydrochloride [Compound 57] | 482 | – | 16800 | – | – | – | – | 0 | 25 | 0 | – | – | – | –
CCN(CC)CCn1c(=O)n(C2CCN(C(=S)NC(Cc3ccccc3)C(=O)OC)CC2)c2ccccc21 [Compound 42, 1-(N1-Piperidinocarbothioyl-(2-phenyl-1-L-carboxymethyl)amino-4-yl)-3-(2-diethyaminoethyl)-1,3-dihydrobenzimidazol-2-one] | 810 | – | – | – | 0 | – | – | – | – | – | – | 37 | 0 | 0

Other lines, results leading:

IC50 (human V1a receptor) [nM] | IC50 (human V2 receptor [1]) [nM] | IC50 (human V1b receptor [2]) [nM] | inhibition at 1 µM (human V1b receptor [3]; 1.0 μM compound, read-out: V1b@1.0, % Inh) [%] | inhibition at 1 µM (human V2 receptor [4]; 1.0 μM compound) [%] | IC50 (human V1b receptor [3]) [nM] | IC50 (human V2 receptor [4]) [nM] | Cell-Based Functional activity V2 % Inh. @ 30 (human V2 receptor [1]; 30 μM compound) [% @ 30] | V1b % Inh @10 (human V1b receptor [3]; 10 μM compound) [%@10] | V2@1.0, % Inh (human V2 receptor [4]; 1.0 μM compound) [%] | inhibition at 30 µM (human V2 receptor [1]; HEK293, 30 μM compound, read-out: Cell-Based Functional activity V2 % Inh. @ 30) [%] | inhibition at 10 µM (human V1b receptor [3]; 10 μM compound) [%] | inhibition at 10 µM (human V2 receptor [1]; HEK293, 10 μM compound, read-out: Cell-Based Functional activity V2 % Inh. @ 10) [%] | inhibition at 30 µM (human V1b receptor [2]; HEK293, 30 μM compound, read-out: Cell-Based Functional activity V1b % Inh. @ 30) [%] | Compound
139 | 22800 | 318 | – | – | 5100 | 1250 | – | – | – | – | – | – | – | NCCCn1c(=O)n(C2CCN(C(=S)NC(c3ccccc3)c3ccccc3)CC2)c2ccccc21 [Compound 55, 1-[(N1-Piperidinocarbothioyldiphenylmethylamino)-4-yl]-3-(3-aminopropyl)-1,3-dihydrobenzimidazol-2-one Monohydrochloride]
240 | – | 6610 | – | 18 | 4100 | – | – | – | – | 0 | 62 | – | – | N=C(N)NCCCn1c(=O)n(C2CCN(C(=S)NC(c3ccccc3)c3ccccc3)CC2)c2ccccc21 [Compound 59, 1-[(N1-Piperidinocarbothioyldiphenylmethylamino)-4-yl]-3-(3-guanidinopropyl)-1,3-dihydrobenzimidazol-2-one]
